Data on 11 compounds can be found in PubChem BioAssay (NCI).

Some test systems named below: A498 renal; ACHN renal; BT-549 breast; CAKI-1 renal; CCRF-CEM leukemia; EKVX NSCLC; LOX IMVI melanoma; MCF7 breast; MDA-MB-435; TK-10 renal.
Assay in all cases: inhibition of tumour cell growth, NCI panel, 48 h

Where “and” joins values, the source holds several entries; their conditions need not be identical. Equal values may be shown once.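 How tested: cells in 96-well plates exposed to compound for 48 hours at five concentrations. Here, GI50 denotes the concentration required for 50% inhibition of growth. TGI: total growth inhibition.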 Where only a bound is given, the exact number is not on record here.

For the compound `O=C(Nc1cccc(Cl)c1)c1cc2ccccc2cc1O`, the GI50 with A498 renal is 0.742 µM and 1.08 µM; in the assay on ACHN renal it was 2.55 µM and 0.609 µM; in the assay on BT-549 breast, 2.42 µM and 1.84 µM; in the assay with CAKI-1 renal, 2.1 µM and 1.51 µM; with CCRF-CEM leukemia, 5.58 µM and 8.61 µM; in the assay on EKVX NSCLC it was 2.76 µM and 2.05 µM. Moreover, the GI50 in the assay with LOX IMVI melanoma is 3.73 µM and 1.75 µM; with MCF7 breast, 2.66 µM and 2.12 µM; in the assay with MDA-MB-435, 2.38 µM and 2.02 µM; in the assay with TK-10 renal it was 5.58 µM and 5.82 µM. The TGI in the assay on A498 renal was 4.34 µM and 4.64 µM; in the assay on ACHN renal, above 100 µM; with BT-549 breast, 7.66 µM and 9.29 µM; with CAKI-1 renal, above 100 µM; in the assay on CCRF-CEM leukemia it was above 100 µM; in the assay on EKVX NSCLC it was above 100 µM. In addition, the TGI with LOX IMVI melanoma, with MCF7 breast, with MDA-MB-435 and in the assay with TK-10 renal was above 100 µM in each case.

As for `O=C(CN(C1CCCCC1)C1CCCCC1)Nc1ccc(S(=O)(=O)c2ccc(NC(=O)CN(C3CCCCC3)C3CCCCC3)cc2)cc1`, the GI50 in the assay with A498 renal is 11.4 µM; with ACHN renal it was 1.17 µM; in the assay with BT-549 breast, 0.506 µM; in the assay with CAKI-1 renal, 1.14 µM; in the assay with CCRF-CEM leukemia, 0.222 µM; with EKVX NSCLC, 1.41 µM. Besides, the GI50 in the assay with LOX IMVI melanoma is 0.239 µM; in the assay on MCF7 breast, 0.299 µM; in the assay on MDA-MB-435 it was 0.873 µM; in the assay on TK-10 renal, 2.24 µM. For the same compound, the TGI in the assay on A498 renal is 27.9 µM; in the assay on ACHN renal it was 2.4 µM; in the assay with BT-549 breast it was 1.91 µM; in the assay on CAKI-1 renal, 2.35 µM; in the assay on CCRF-CEM leukemia it was 1.28 µM; with EKVX NSCLC, 2.88 µM. Further, the TGI in the assay on LOX IMVI melanoma amounted to 0.845 µM; with MCF7 breast, 1.62 µM; with MDA-MB-435 it was 2.35 µM; in the assay on TK-10 renal it was 6.03 µM.

Turning to `Nc1nc(Nc2ccccc2)c2ncn(Cc3cc4c(cc3Br)OCO4)c2n1`, the GI50 was 0.0546 µM with A498 renal; 0.0799 µM with ACHN renal; 0.0511 µM in the assay with BT-549 breast; 0.135 µM in the assay with CAKI-1 renal; 0.0431 µM in the assay with CCRF-CEM leukemia; below 0.0276 µM in the assay on EKVX NSCLC. In addition, the GI50 was 0.0563 µM with LOX IMVI melanoma, below 0.01 µM in the assay on MCF7 breast, 0.0301 µM in the assay with MDA-MB-435 and 0.114 µM in the assay with TK-10 renal. Also, the TGI in the assay on A498 renal is 29.7 µM; with ACHN renal it was 30.4 µM; with BT-549 breast, 2.33 µM; with CAKI-1 renal it was above 55.2 µM; in the assay with EKVX NSCLC it was above 100 µM; with LOX IMVI melanoma, above 100 µM. Besides, the TGI came out at 31.9 µM in the assay on MCF7 breast, 0.129 µM with MDA-MB-435 and 18.1 µM with TK-10 renal.

With `O=C(Nc1cccc(Cl)c1Cl)c1cccc(NC2=C(Cl)C(=O)N(Cc3ccccc3)C2=O)c1`, the GI50 was 36.1 µM in the assay with A498 renal; 54.7 µM in the assay with ACHN renal; 15.7 µM in the assay with BT-549 breast; 33.2 µM with CAKI-1 renal; 14 µM in the assay with CCRF-CEM leukemia; 34.2 µM in the assay on EKVX NSCLC. Besides, the GI50 was 13.1 µM in the assay on LOX IMVI melanoma, 11.3 µM with MCF7 breast, 20.4 µM in the assay on MDA-MB-435 and above 100 µM in the assay with TK-10 renal. For the same compound, the TGI is above 100 µM in the assay on A498 renal; above 100 µM with ACHN renal; 84.5 µM in the assay on BT-549 breast; above 100 µM with CAKI-1 renal; above 100 µM with CCRF-CEM leukemia; 89.2 µM in the assay with EKVX NSCLC. The TGI in the assay with LOX IMVI melanoma was above 100 µM; with MCF7 breast it was above 100 µM; in the assay on MDA-MB-435 it was 53.2 µM; with TK-10 renal it was above 100 µM.

`CC(C)c1ccccc1S(=O)c1ccccc1C(C)(C)O` (centres undefined): the TGI with A498 renal was 40.8 µM; in the assay with ACHN renal it was above 100 µM; in the assay on BT-549 breast, above 100 µM; in the assay on CAKI-1 renal, above 100 µM; in the assay with CCRF-CEM leukemia, above 100 µM; in the assay on EKVX NSCLC, above 100 µM. Also, the TGI in the assay on LOX IMVI melanoma, with MCF7 breast, with MDA-MB-435 and in the assay with TK-10 renal was above 100 µM each time.

Turning to `Cc1cn2c(/C=C3/C(=O)Nc4ccccc43)c(-c3ccc(Cl)cc3)nc2s1`, the GI50 was 10.6 µM in the assay with A498 renal; 2.48 µM in the assay with ACHN renal; 9.32 µM with BT-549 breast; 12.1 µM in the assay on CAKI-1 renal; 17.6 µM in the assay with CCRF-CEM leukemia; 8.73 µM with EKVX NSCLC. Besides, the GI50 is 5.84 µM in the assay on LOX IMVI melanoma, 6.9 µM with MCF7 breast, 8.07 µM in the assay on MDA-MB-435 and 8.99 µM in the assay on TK-10 renal. Further, the TGI in the assay on A498 renal was 23.6 µM; in the assay on ACHN renal it was 8.52 µM; in the assay on BT-549 breast it was 19.3 µM; in the assay with CAKI-1 renal, 25.5 µM; in the assay on CCRF-CEM leukemia, above 50 µM; in the assay with EKVX NSCLC, 18.8 µM. Further, the TGI with LOX IMVI melanoma was 12 µM; with MCF7 breast, 19.7 µM; in the assay with MDA-MB-435, 14.8 µM; in the assay on TK-10 renal it was 17.3 µM.

As for `COc1ccc(/C=c2/sc3n(c2=O)C(c2ccc(OC)c(OC)c2)C2=C(N=3)c3cc(F)ccc3OC2)cc1` (centres undefined), the GI50 with A498 renal is 45.6 µM; in the assay on ACHN renal it was 19.3 µM; in the assay with BT-549 breast, 46.2 µM; with CAKI-1 renal, 10.1 µM; with CCRF-CEM leukemia, above 55.7 µM; in the assay on EKVX NSCLC it was 39.7 µM. The GI50 in the assay with LOX IMVI melanoma was 23 µM; in the assay with MCF7 breast, 23.6 µM; in the assay with MDA-MB-435 it was 14.1 µM; in the assay on TK-10 renal, 29 µM. The TGI with A498 renal was above 80.9 µM; in the assay with ACHN renal, 65.7 µM; with BT-549 breast, above 100 µM; with CAKI-1 renal, 41.7 µM; with CCRF-CEM leukemia, above 100 µM; in the assay on EKVX NSCLC it was above 100 µM. The TGI in the assay on LOX IMVI melanoma is 50.7 µM; in the assay with MCF7 breast, above 100 µM; with MDA-MB-435, 41.1 µM; in the assay on TK-10 renal it was above 87.6 µM.

Consider `COc1cc(/C=C2\C(=O)Nc3ccc(F)cc32)cc(OC)c1OC`, for which the GI50 with A498 renal is 54 µM; with ACHN renal it was 50 µM; with BT-549 breast it was 22.7 µM; with CAKI-1 renal, 15.8 µM; in the assay with CCRF-CEM leukemia it was 23.3 µM; in the assay with EKVX NSCLC it was 33.1 µM. For the same compound, the GI50 in the assay with LOX IMVI melanoma was 20.5 µM; in the assay on MCF7 breast, 4.73 µM; in the assay on MDA-MB-435, 5.5 µM; with TK-10 renal, 68.5 µM. In addition, the TGI in the assay on A498 renal, with ACHN renal, with BT-549 breast, in the assay with CAKI-1 renal, in the assay with CCRF-CEM leukemia and with EKVX NSCLC was above 100 µM throughout. Also, the TGI in the assay with LOX IMVI melanoma, in the assay with MCF7 breast, in the assay with MDA-MB-435 and in the assay on TK-10 renal was above 100 µM throughout.

Take `O=C(O)c1c(-c2nccc3ccccc23)[nH]c(-c2ccccc2)c1S(=O)(=O)O`: the TGI in the assay with A498 renal, with ACHN renal, with BT-549 breast, in the assay on CAKI-1 renal, in the assay with CCRF-CEM leukemia and in the assay on EKVX NSCLC was above 100 µM in each case. Further, the TGI in the assay with LOX IMVI melanoma, in the assay on MCF7 breast, with MDA-MB-435 and in the assay with TK-10 renal was above 100 µM each time.

Consider `O=C1/C(=C\c2cccn2Cc2ccccc2)c2ccccc2N1c1c(Cl)cccc1Cl`, for which the GI50 with A498 renal is above 100 µM; with ACHN renal, 7.9 µM; in the assay with BT-549 breast it was above 100 µM; with CAKI-1 renal, above 28.9 µM; in the assay on CCRF-CEM leukemia, above 100 µM; with EKVX NSCLC it was 1.42 µM. Also, the GI50 was above 100 µM in the assay on LOX IMVI melanoma, 0.0898 µM in the assay with MCF7 breast, above 100 µM with MDA-MB-435 and 0.978 µM in the assay on TK-10 renal. For the same compound, the TGI in the assay with A498 renal is above 100 µM; with ACHN renal, above 100 µM; with BT-549 breast it was above 100 µM; in the assay with CAKI-1 renal, above 100 µM; with CCRF-CEM leukemia, above 100 µM; in the assay on EKVX NSCLC it was above 28.1 µM. For the same compound, the TGI in the assay on LOX IMVI melanoma, in the assay on MCF7 breast, in the assay with MDA-MB-435 and with TK-10 renal was above 100 µM each time.

`Nc1nc(Br)nc2c1ncn2C1CC(O)C(CO)O1` (centres undefined): the GI50 in the assay on A498 renal was 21 µM; in the assay with ACHN renal, 3.7 µM; in the assay on BT-549 breast it was 3.52 µM; in the assay on CAKI-1 renal it was 2.88 µM; in the assay on CCRF-CEM leukemia, 0.204 µM; in the assay on EKVX NSCLC it was above 100 µM. In addition, the GI50 is 29.8 µM in the assay on LOX IMVI melanoma, 1.26 µM in the assay with MCF7 breast, 11.6 µM in the assay on MDA-MB-435 and above 100 µM in the assay on TK-10 renal. Moreover, the TGI in the assay with A498 renal was 99.4 µM; with ACHN renal it was above 100 µM; in the assay with BT-549 breast it was above 100 µM; with CAKI-1 renal it was above 29.9 µM; in the assay with CCRF-CEM leukemia, above 100 µM; in the assay on EKVX NSCLC, above 100 µM. Moreover, the TGI in the assay on LOX IMVI melanoma, in the assay with MCF7 breast, in the assay with MDA-MB-435 and in the assay on TK-10 renal was above 100 µM in each case.
